In patent US20230372498A1, “PLK1 SELECTIVE DEGRADATION INDUCING COMPOUND” (UPPTHERA, priority 2020, published 2023):

Target: T1, PLK1 (Homo sapiens, UniProt P53350)
T1 construct: endogenous in cells; host or cells: HeLa
Test: PLK1 protein degradation in HeLa cells, Western blotting (PLK1/GAPDH ratio)
Type: cell-based
Conditions: 6 hours compound incubation; for DC50: measured only if the grade of Dmax is A or B; for Dmax: thymidine block and release, 10 points three-fold from 3 μM, PLK1 to GAPDH ratio, read-out: Dmax
Outline: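 PLK1 level measured by Western blot as PLK1/GAPDH in HeLa lysates (15 μg protein per lane). Cells were blocked with 2 mM thymidine 24 h, released 4 h, and exposed 6 h to compound, 10 concentrations, 3-fold steps, top 3 μM.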

T1 sequence (P53350 whole entry): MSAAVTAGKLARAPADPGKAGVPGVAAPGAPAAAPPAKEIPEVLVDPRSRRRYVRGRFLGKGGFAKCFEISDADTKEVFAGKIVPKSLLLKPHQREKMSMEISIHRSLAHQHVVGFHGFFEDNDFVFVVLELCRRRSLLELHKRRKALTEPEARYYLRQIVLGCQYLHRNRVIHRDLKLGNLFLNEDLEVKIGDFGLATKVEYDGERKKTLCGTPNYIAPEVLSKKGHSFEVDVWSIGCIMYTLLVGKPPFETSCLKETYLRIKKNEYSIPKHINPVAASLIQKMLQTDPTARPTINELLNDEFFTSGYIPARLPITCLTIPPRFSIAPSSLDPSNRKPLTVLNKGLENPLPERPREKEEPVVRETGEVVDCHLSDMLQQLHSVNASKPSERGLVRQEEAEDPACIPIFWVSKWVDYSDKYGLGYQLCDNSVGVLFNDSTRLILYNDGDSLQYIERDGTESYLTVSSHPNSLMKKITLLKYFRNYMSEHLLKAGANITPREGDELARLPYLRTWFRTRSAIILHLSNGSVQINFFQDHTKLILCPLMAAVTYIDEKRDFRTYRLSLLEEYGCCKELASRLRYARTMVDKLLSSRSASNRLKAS

SMILES	DC50 [nM]	Dmax [%]
COc1cc(C(=O)NC2CCN(CCOCCOCCNc3cccc4c3CN(C3CCC(=O)NC3=O)C4=O)CC2)c(F)cc1Nc1ncc2c(n1)N(C1CCCC1)CC(F)(F)C(=O)N2C (stereo not shown) [Compound 75, 4-((9-cyclopentyl-7,7-difluoro-5-methyl-6-oxo-6,7,8,9-tetrahydro-5H-pyrimido[4,5-b][1,4]diazepin-2-yl)amino)-N-(1-(2-(2-(2-((2-(2,6-dioxopiperidin-3-yl)-1-oxoisoindolin-4-yl)amino)ethoxy)ethoxy)ethyl)piperidin-4-yl)-2-fluoro-5-methoxybenzamide]	≤ 50	≥ 80
COc1cc(C(=O)NC2CCN(CCOCCOCCOCCOCCNc3cccc4c3CN(C3CCC(=O)NC3=O)C4=O)CC2)c(F)cc1Nc1ncc2c(n1)N(C1CCCC1)CC(F)(F)C(=O)N2C (stereo not shown) [Compound 76, 4-((9-cyclopentyl-7,7-difluoro-5-methyl-6-oxo-6,7,8,9-tetrahydro-5H-pyrimido[4,5-b][1,4]diazepin-2-yl)amino)-N-(1-(14-((2-(2,6-dioxopiperidin-3-yl)-1-oxoisoindolin-4-yl)amino)-3,6,9,12-tetraoxatetradecyl)piperidin-4-yl)-2-fluoro-5-methoxybenzamide]	≤ 500	60 to 80
COc1cc(C(=O)NC2CCN(CCCCCCCCNc3cccc4c3CN(C3CCC(=O)NC3=O)C4=O)CC2)c(F)cc1Nc1ncc2c(n1)N(C1CCCC1)CC(F)(F)C(=O)N2C (stereo not shown) [Compound 77, 4-((9-cyclopentyl-7,7-difluoro-5-methyl-6-oxo-6,7,8,9-tetrahydro-5H-pyrimido[4,5-b][1,4]diazepin-2-yl)amino)-N-(1-(8-((2-(2,6-dioxopiperidin-3-yl)-1-oxoisoindolin-4-yl)amino)octyl)piperidin-4-yl)-2-fluoro-5-methoxybenzamide]	≤ 500	60 to 80
COc1cc(C(=O)NC2CCN(CCOCCOCCOCCOCCNc3cccc4nnn(C5CCC(=O)NC5=O)c(=O)c34)CC2)c(F)cc1Nc1ncc2c(n1)N(C1CCCC1)CC(F)(F)C(=O)N2C (stereo not shown) [Compound 78, 4-((9-cyclopentyl-7,7-difluoro-5-methyl-6-oxo-6,7,8,9-tetrahydro-5H-pyrimido[4,5-b][1,4]diazepin-2-yl)amino)-N-(1-(14-((3-(2,6-dioxopiperidin-3-yl)-4-oxo-3,4-dihydrobenzo[d][1,2,3]triazin-5-yl)amino)-3,6,9,12-tetraoxatetradecyl)piperidin-4-yl)-2-fluoro-5-methoxybenzamide]	≤ 50	≥ 80
COc1cc(C(=O)NC2CCN(CCCCCCCCNc3cccc4nnn(C5CCC(=O)NC5=O)c(=O)c34)CC2)c(F)cc1Nc1ncc2c(n1)N(C1CCCC1)CC(F)(F)C(=O)N2C (stereo not shown) [Compound 79, 4-((9-cyclopentyl-7,7-difluoro-5-methyl-6-oxo-6,7,8,9-tetrahydro-5H-pyrimido[4,5-b][1,4]diazepin-2-yl)amino)-N-(1-(8-((3-(2,6-dioxopiperidin-3-yl)-4-oxo-3,4-dihydrobenzo[d][1,2,3]triazin-5-yl)amino)octyl)piperidin-4-yl)-2-fluoro-5-methoxybenzamide]	≤ 50	≥ 80
COc1cc(C(=O)NC2CCN(CCOCCOCC(=O)N[C@H](C(=O)N3C[C@H](O)C[C@H]3C(=O)NCc3ccc(-c4scnc4C)cc3)C(C)(C)C)CC2)c(F)cc1Nc1ncc2c(n1)N(C1CCCC1)CC(F)(F)C(=O)N2C [Compound 80]	–	< 60
COc1cc(C(=O)NC2CCN(CCOCCOCCOCC(=O)N[C@H](C(=O)N3C[C@H](O)C[C@H]3C(=O)NCc3ccc(-c4scnc4C)cc3)C(C)(C)C)CC2)c(F)cc1Nc1ncc2c(n1)N(C1CCCC1)CC(F)(F)C(=O)N2C [Compound 81]	–	< 60
COc1cc(C(=O)N[C@H]2CCN(C(=O)CCNC(=O)CNc3cccc4c3C(=O)N(C3CCC(=O)NC3=O)C4=O)C2)c(F)cc1Nc1ncc2c(n1)N(C1CCCC1)CC(F)(F)C(=O)N2C (stereo partly drawn) [Compound 113, 4-((9-cyclopentyl-7,7-difluoro-5-methyl-6-oxo-6,7,8,9-tetrahydro-5H-pyrimido[4,5-b][1,4]diazepin-2-yl)amino)-N-((3S)-1-(3-(2-((2-(2,6-dioxopiperidin-3-yl)-1,3-dioxoisoindolin-4-yl)amino)acetamido)propanoyl)pyrrolidin-3-yl)-2-fluoro-5-methoxybenzamide]	–	< 60

Other lines, results leading:

DC50 [nM]	Dmax [%]	SMILES
≤ 50	≥ 80	COc1cc(C(=O)NC2CCN(C(=O)CCOCCNc3cccc4c3C(=O)N(C3CCC(=O)NC3=O)C4=O)C2)c(F)cc1Nc1ncc2c(n1)N(C1CCCC1)CC(F)(F)C(=O)N2C (stereo not shown) [Compound 114, 4-((9-cyclopentyl-7,7-difluoro-5-methyl-6-oxo-6,7,8,9-tetrahydro-5H-pyrimido[4,5-b][1,4]diazepin-2-yl)amino)-N-(1-(3-(2-((2-(2,6-dioxopiperidin-3-yl)-1,3-dioxoisoindolin-4-yl)amino)ethoxy)propanoyl)pyrrolidin-3-yl)-2-fluoro-5-methoxybenzamide]
≤ 50	≥ 80	COc1cc(C(=O)N[C@H]2CCN(C(=O)COCCOCCNc3cccc4c3C(=O)N(C3CCC(=O)NC3=O)C4=O)C2)c(F)cc1Nc1ncc2c(n1)N(C1CCCC1)CC(F)(F)C(=O)N2C (stereo partly drawn) [Compound 115, 4-((9-cyclopentyl-7,7-difluoro-5-methyl-6-oxo-6,7,8,9-tetrahydro-5H-pyrimido[4,5-b][1,4]diazepin-2-yl)amino)-N-((3S)-1-(2-(2-(2-((2-(2,6-dioxopiperidin-3-yl)-1,3-dioxoisoindolin-4-yl)amino)ethoxy)ethoxy)acetyl)pyrrolidin-3-yl)-2-fluoro-5-methoxybenzamide]
≤ 50	≥ 80	COc1cc(C(=O)N[C@H]2CCN(C(=O)COCCOCCOCCOCCNc3cccc4c3C(=O)N(C3CCC(=O)NC3=O)C4=O)C2)c(F)cc1Nc1ncc2c(n1)N(C1CCCC1)CC(F)(F)C(=O)N2C (stereo partly drawn) [Compound 116, 4-((9-cyclopentyl-7,7-difluoro-5-methyl-6-oxo-6,7,8,9-tetrahydro-5H-pyrimido[4,5-b][1,4]diazepin-2-yl)amino)-N-((3S)-1-(14-((2-(2,6-dioxopiperidin-3-yl)-1,3-dioxoisoindolin-4-yl)amino)-3,6,9,12-tetraoxatetradecanoyl)pyrrolidin-3-yl)-2-fluoro-5-methoxybenzamide]
≤ 50	≥ 80	COc1cc(C(=O)NC2CCN(C(=O)CCCCNc3cccc4c3C(=O)N(C3CCC(=O)NC3=O)C4=O)C2)c(F)cc1Nc1ncc2c(n1)N(C1CCCC1)CC(F)(F)C(=O)N2C (stereo not shown) [Compound 117, 4-((9-cyclopentyl-7,7-difluoro-5-methyl-6-oxo-6,7,8,9-tetrahydro-5H-pyrimido[4,5-b][1,4]diazepin-2-yl)amino)-N-(1-(5-((2-(2,6-dioxopiperidin-3-yl)-1,3-dioxoisoindolin-4-yl)amino)pentanoyl)pyrrolidin-3-yl)-2-fluoro-5-methoxybenzamide]
≤ 50	≥ 80	COc1cc(C(=O)NC2CCN(C(=O)CCCCCNc3cccc4c3C(=O)N(C3CCC(=O)NC3=O)C4=O)C2)c(F)cc1Nc1ncc2c(n1)N(C1CCCC1)CC(F)(F)C(=O)N2C (stereo not shown) [Compound 118, 4-((9-cyclopentyl-7,7-difluoro-5-methyl-6-oxo-6,7,8,9-tetrahydro-5H-pyrimido[4,5-b][1,4]diazepin-2-yl)amino)-N-(1-(6-((2-(2,6-dioxopiperidin-3-yl)-1,3-dioxoisoindolin-4-yl)amino)hexanoyl)pyrrolidin-3-yl)-2-fluoro-5-methoxybenzamide]
≤ 50	≥ 80	COc1cc(C(=O)N[C@H]2CCN(C(=O)CCCCCNc3cccc4c3C(=O)N(C3CCC(=O)NC3=O)C4=O)C2)c(F)cc1Nc1ncc2c(n1)N(C1CCCC1)CC(F)(F)C(=O)N2C (stereo partly drawn) [Compound 119, 4-((9-cyclopentyl-7,7-difluoro-5-methyl-6-oxo-6,7,8,9-tetrahydro-5H-pyrimido[4,5-b][1,4]diazepin-2-yl)amino)-N-((3S)-1-(6-((2-(2,6-dioxopiperidin-3-yl)-1,3-dioxoisoindolin-4-yl)amino)hexanoyl)pyrrolidin-3-yl)-2-fluoro-5-methoxybenzamide]
≤ 50	≥ 80	COc1cc(C(=O)N[C@@H]2CCN(C(=O)CCCCCNc3cccc4c3C(=O)N(C3CCC(=O)NC3=O)C4=O)C2)c(F)cc1Nc1ncc2c(n1)N(C1CCCC1)CC(F)(F)C(=O)N2C (stereo partly drawn) [Compound 120, 4-((9-cyclopentyl-7,7-difluoro-5-methyl-6-oxo-6,7,8,9-tetrahydro-5H-pyrimido[4,5-b][1,4]diazepin-2-yl)amino)-N-((3R)-1-(6-((2-(2,6-dioxopiperidin-3-yl)-1,3-dioxoisoindolin-4-yl)amino)hexanoyl)pyrrolidin-3-yl)-2-fluoro-5-methoxybenzamide]
≤ 50	≥ 80	COc1cc(C(=O)N[C@H]2CCN(CC(=O)NCCOCCNc3cccc4c3C(=O)N(C3CCC(=O)NC3=O)C4=O)C2)c(F)cc1Nc1ncc2c(n1)N(C1CCCC1)CC(F)(F)C(=O)N2C (stereo partly drawn) [Compound 121, 4-((9-cyclopentyl-7,7-difluoro-5-methyl-6-oxo-6,7,8,9-tetrahydro-5H-pyrimido[4,5-b][1,4]diazepin-2-yl)amino)-N-((3S)-1-(2-((2-(2-((2-(2,6-dioxopiperidin-3-yl)-1,3-dioxoisoindolin-4-yl)amino)ethoxy)ethyl)amino)-2-oxoethyl)pyrrolidin-3-yl)-2-fluoro-5-methoxybenzamide]
≤ 50	≥ 80	COc1cc(C(=O)N[C@H]2CCN(CC(=O)NCCCNc3cccc4c3C(=O)N(C3CCC(=O)NC3=O)C4=O)C2)c(F)cc1Nc1ncc2c(n1)N(C1CCCC1)CC(F)(F)C(=O)N2C (stereo partly shown) [Compound 122]
